Results taken from the supplement of paper PMC10307832.

Tests used:
Assay in all cases: relative viability (nuclei count vs DMSO), 5 days (fraction); higher = more cells survive
[1] = compound: C1=CC=C2C(=C1)C=CC(=C2SSC3=C(C=CC4=CC=CC=C43)O)O [IPA-3] + CC(=O)c1c(C)c2cnc(Nc3ccc(N4CCNCC4)cn3)nc2n(C2CCCC2)c1=O [Palbociclib] (partner 0.5 µM)
Method in brief: (§1)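 One day after seeding in 1536-well plates, lung cancer cell lines were dosed by pin tool. Dosing was either single-drug or a fixed anchor-drug dose plus five library-drug doses (not always all listed) in √10 steps. After 5 days, nuclei were stained in one fix-and-stain step and counted on 4× images, and relative viability is the nuclei count of treated wells over that of vehicle wells, given as the median of duplicate plates.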

[2] = compound: Cn1c(Nc2ccc(C(F)(F)F)cc2)nc2cc(Oc3ccnc(-c4ncc(C(F)(F)F)[nH]4)c3)ccc21 [RAF265] + CCNC(=O)c1noc(-c2cc(C(C)C)c(O)cc2O)c1-c1ccc(CN2CCOCC2)cc1 [Luminespib] (partner 0.01 µM)
Method in brief: as §1

[3] = compound: Cc1ccc(-n2nc(C(C)(C)C)cc2NC(=O)Nc2ccc(OCCN3CCOCC3)c3ccccc23)cc1 [Doramapimod] + CC(=O)Nc1cccc(-n2c(=O)n(C3CC3)c(=O)c3c(Nc4ccc(I)cc4F)n(C)c(=O)c(C)c32)c1 [Trametinib] (partner 0.02 µM)
Method in brief: as §1

[4] = compound: Cc1ccc(-n2nc(C(C)(C)C)cc2NC(=O)Nc2ccc(OCCN3CCOCC3)c3ccccc23)cc1 [Doramapimod] + Cc1nc(NC(=O)N2CCC[C@H]2C(N)=O)sc1-c1ccnc(C(C)(C)C(F)(F)F)c1 [Alpelisib] (partner 2 µM)
Method in brief: as §1

Cell Line	relative viability ([1]; first compound 0.2 µM)	relative viability ([1]; first compound 0.6325 µM)	relative viability ([1]; first compound 2 µM)	relative viability ([1]; first compound 6.325 µM)	relative viability ([1]; first compound 20 µM)	relative viability ([2]; first compound 0.01 µM)	relative viability ([2]; first compound 0.03162 µM)	relative viability ([2]; first compound 0.1 µM)	relative viability ([2]; first compound 0.3162 µM)	relative viability ([2]; first compound 1 µM)	relative viability ([3]; first compound 0.02 µM)	relative viability ([3]; first compound 0.06325 µM)	relative viability ([3]; first compound 0.2 µM)	relative viability ([3]; first compound 0.6325 µM)	relative viability ([3]; first compound 2 µM)	relative viability ([4]; first compound 0.02 µM)	relative viability ([4]; first compound 0.06325 µM)	relative viability ([4]; first compound 0.2 µM)	relative viability ([4]; first compound 0.6325 µM)	relative viability ([4]; first compound 2 µM)
NCI-H358	0.141	0.117	0.153	0.14	0.157	0.28	0.21	0.231	0.166	0.126	0.163	0.137	0.124	0.15	0.156	0.885	0.653	0.768	0.918	0.799
NCI-H1734	0.366	0.19	0.359	0.345	0.361	0.227	0.189	0.178	0.17	0.17	0.599	0.611	0.599	0.587	0.514	0.603	0.567	0.559	0.629	0.533
A-427	0.531	0.499	0.511	0.515	0.52	0.691	0.821	1.16	0.631	0.226	0.763	0.714	0.79	–	0.619	1.07	1.1	1.15	–	1.08
RERF-LC-KJ	1.19	1.04	1.08	1.16	0.826	1.34	1.22	1.08	0.763	0.713	0.969	0.881	0.901	0.984	0.885	0.857	0.865	0.765	1.01	0.867
NCI-H727	0.671	0.784	0.644	0.63	0.625	0.332	0.345	0.6	0.383	0.263	0.389	0.395	0.406	0.4	0.32	0.5	0.587	0.598	0.675	0.528
LCLC-97TM1	0.23	0.2	0.226	0.185	0.177	0.819	0.67	0.632	0.309	0.306	0.169	0.225	0.249	0.265	0.204	0.205	0.221	0.275	0.266	0.212
BEN	0.432	0.471	0.43	0.532	0.457	0.402	0.491	0.534	0.224	0.325	0.908	0.924	1.11	0.737	0.924	0.903	0.876	1.05	0.97	0.95
NCI-H2023	0.441	0.347	0.414	0.442	0.41	0.802	0.78	0.674	0.837	0.454	0.493	0.447	0.489	0.634	0.548	0.498	0.54	0.503	0.617	0.503
LC-2-ad	0.545	0.495	0.479	0.451	0.518	1.31	1.05	1.14	0.692	0.672	0.992	0.92	0.906	0.981	0.855	0.943	0.995	0.884	0.888	0.835
NCI-H647	0.561	0.373	0.371	0.206	0.0359	0.256	0.103	0.171	0.153	0.0987	0.468	0.445	0.481	0.6	0.523	1.26	1.15	1.14	1.12	1.03
NCI-H1755	0.464	0.488	0.422	0.43	0.44	0.627	0.45	0.351	0.262	0.398	0.849	0.887	0.751	0.761	0.714	0.907	0.884	0.989	0.98	0.922
EPLC-272H	0.31	0.38	0.316	0.304	0.327	0.169	0.224	0.333	0.138	0.177	0.25	0.294	0.302	–	0.291	0.924	0.918	0.946	1.04	0.811
NCI-H1437	0.409	0.359	0.317	0.291	0.285	1.02	1.07	1.08	1.23	1.11	0.477	0.486	0.423	0.423	0.486	0.904	1.01	0.915	0.926	0.965
EKVX	0.352	0.418	0.34	0.456	0.409	0.837	0.918	0.984	0.598	0.791	0.32	0.268	0.328	0.352	0.313	0.826	0.755	0.773	1	0.833
NCI-H1651	0.534	0.511	0.541	0.528	0.602	1	0.812	0.971	0.807	0.714	0.811	0.865	0.823	0.792	0.825	0.788	0.987	0.876	0.962	0.859
HCC-15	0.889	0.78	0.462	0.697	0.704	0.27	0.229	0.388	0.159	0.173	0.341	0.306	0.331	0.293	0.292	0.854	0.801	0.884	0.906	0.775
